One test has as its system A3AR. The conditions noted are these: at 10 μM, percentage of full effect induced by 10 μM 51; cited from earlier work.
Test [1] deals with T1, human A3AR (Homo sapiens, UniProt P0DMS8).
T1 sequence (P0DMS8 1-318): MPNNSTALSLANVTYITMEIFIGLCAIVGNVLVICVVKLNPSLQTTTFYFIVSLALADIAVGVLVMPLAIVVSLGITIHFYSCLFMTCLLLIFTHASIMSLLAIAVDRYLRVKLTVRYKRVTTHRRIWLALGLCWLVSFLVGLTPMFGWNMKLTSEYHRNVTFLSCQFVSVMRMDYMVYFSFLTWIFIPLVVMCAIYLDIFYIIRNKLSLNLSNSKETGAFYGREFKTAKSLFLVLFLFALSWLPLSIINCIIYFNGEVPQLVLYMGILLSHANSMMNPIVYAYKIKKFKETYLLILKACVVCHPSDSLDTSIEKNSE
Briefly: Inhibition of forskolin-stimulated cAMP production. The conditions noted are these: for agonist character at hA3AR in the adenylate cyclase (cAMP) assay: relative to full agonist 51. Background: Changes in cAMP serve as a functional read-out for many G protein-coupled receptors.

The target of test [2] is T2, human A2A adenosine receptor (hA2AAR) (Homo sapiens, UniProt P29274). The conditions noted are these: cited from earlier work; for % inhibition of radioligand binding A2A: at 10 μM.
Test [3] deals with T1, human A3AR. The following applies: at 10 μM, relative to 51 (= 100%); cited from earlier work.
In test [4] the target is T2, human A2A adenosine receptor (hA2AAR). Description: Radioligand binding at human A2AAR, membranes of HEK293 cells.
The target of test [5] is T3, human A3 adenosine receptor (hA3AR) (Homo sapiens, UniProt P0DMS8).
T3 sequence (P0DMS8 1-318): T1 sequence (P0DMS8 1-318)
Description: Radioligand binding at human A3AR, membranes of CHO cells.

Test [6] deals with T4, human A1 adenosine receptor (hA1AR) (Homo sapiens, UniProt P30542).
T4 sequence (P30542 1-326): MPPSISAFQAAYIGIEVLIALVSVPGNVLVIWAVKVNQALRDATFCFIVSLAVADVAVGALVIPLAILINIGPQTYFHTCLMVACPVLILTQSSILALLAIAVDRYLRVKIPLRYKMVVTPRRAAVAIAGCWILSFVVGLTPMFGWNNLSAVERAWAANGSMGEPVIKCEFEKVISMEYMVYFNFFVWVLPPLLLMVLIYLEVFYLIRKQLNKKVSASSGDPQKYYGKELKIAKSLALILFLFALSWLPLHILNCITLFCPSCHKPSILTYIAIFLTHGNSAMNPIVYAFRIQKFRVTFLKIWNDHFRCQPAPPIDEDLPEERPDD
Description: Radioligand binding at human A1AR, membranes of CHO cells.

The target in another test is T5, rA3AR (Rattus norvegicus, UniProt P28647).
T5 sequence (P28647 1-320): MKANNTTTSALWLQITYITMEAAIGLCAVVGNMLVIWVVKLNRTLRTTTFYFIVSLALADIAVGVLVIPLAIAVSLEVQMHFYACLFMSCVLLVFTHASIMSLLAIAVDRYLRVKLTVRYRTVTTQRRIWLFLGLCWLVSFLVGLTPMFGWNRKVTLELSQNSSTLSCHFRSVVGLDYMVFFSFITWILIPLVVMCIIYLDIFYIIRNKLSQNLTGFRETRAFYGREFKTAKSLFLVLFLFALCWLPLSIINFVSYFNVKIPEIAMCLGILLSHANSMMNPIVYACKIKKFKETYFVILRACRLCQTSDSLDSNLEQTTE
Briefly: Radioligand binding at rat A3AR.

Structures are written as SMILES. Several values for one entry are separate records, joined by “and”; a condition that tells them apart may be missing. Equal entries are not always repeated. Entries after “also recorded” stand apart in the source; their conditions may differ. Where two headings read alike, the source gives them in different places. Marks after values point to notes of the source that are not given here.

T2 sequence (P29274 whole entry): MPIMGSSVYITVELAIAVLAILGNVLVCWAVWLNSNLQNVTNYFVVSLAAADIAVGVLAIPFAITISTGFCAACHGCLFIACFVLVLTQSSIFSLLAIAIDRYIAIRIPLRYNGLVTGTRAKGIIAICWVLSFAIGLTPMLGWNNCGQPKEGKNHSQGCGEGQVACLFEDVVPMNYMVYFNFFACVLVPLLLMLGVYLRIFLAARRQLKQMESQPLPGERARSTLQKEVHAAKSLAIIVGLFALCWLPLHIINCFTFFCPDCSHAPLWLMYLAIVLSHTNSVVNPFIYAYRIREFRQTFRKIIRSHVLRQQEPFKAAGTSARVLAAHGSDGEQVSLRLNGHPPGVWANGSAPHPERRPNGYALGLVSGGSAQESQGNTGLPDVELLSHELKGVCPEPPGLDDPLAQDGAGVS

As to `O[C@@H]1[C@H](O)[C@@H]2C[C@@H]2[C@H]1n1cnc2c(NCc3cccc(Cl)c3)nc(Cl)nc21` [Compound 2a], in the test with A3AR, the “% efficacy, A3 (stimulation of [35S]GTPγS binding)” value is recorded as 2.9 ± 3.7 ^f %.
Broadly, the EC50 is the concentration needed to bring the measured effect to its halfway point. A high value points to lower potency in that assay. Take `CNC(=O)[C@]12C[C@@H]1[C@@H](n1cnc3c(NCc4cccc(Cl)c4)nc(C#CCCC(=O)NCCNC(=O)CCCC[C@H]4SC[C@H]5NC(=O)N[C@H]54)nc31)[C@H](O)[C@@H]2O` [Compound 17a, (1′S,2′R,3′S,4′S,5′S)-4′-[6-(3-Chiorobenzylamino)-2-(N-biotinyl(β-aminoethylaminocarbonyl)-1-butynyl)-9-yl]-2′, 3′-dihydroxybicyclo[3.1.0]hexane-1′-carboxylic Acid N-Methylamide]: the response on human A3AR [1] was half-maximal at 2.5 ± 0.42 nM (EC50).
For `CNC(=O)[C@]12C[C@@H]1[C@@H](n1cnc3c(NCc4cccc(Cl)c4)nc(C#CCCCC(=O)OC)nc31)[C@H](O)[C@@H]2O` [Compound 9], the “% inhibition of radioligand binding A2A” value in test [2] was “(49%)”.
Regarding `CNC(=O)[C@@]12C[C@@H]1[C@@H](n1cnc3c(NCc4cccc(Cl)c4)nc(C#CCCCC(=O)O)nc31)[C@H](O)[C@@H]2O` [Compound 6], the “% inhibition of radioligand binding A2A” value in test [2] is recorded as “(43%)”.
The term Ki denotes a dissociation constant, usually derived from enzyme kinetics or from competition with a known ligand. Turning to `CNC(=O)[C@@]12C[C@@H]1[C@@H](n1cnc3c(NCc4cccc(I)c4)nc(Cl)nc31)[C@H](O)[C@@H]2O` [Compound 1b, reference compound], in test [2] (read-out: affinity (Ki) A2A, HEK293 cells expressing hA2AAR), the Ki was 784 ± 97 nM. On human A3AR [3], the “% efficacy, A3 (inhibition of forskolin-stimulated cAMP production)” value is on record as 100 ^c %.
With `CNC(=O)[C@]12C[C@@H]1[C@@H](n1cnc3c(NCc4cccc(Cl)c4)nc(C#CCCCC(=O)NCCN)nc31)[C@H](O)[C@@H]2O` [Compound 12], in test [2], the “% inhibition of radioligand binding A2A” value is on record as “(81%)”.
As for `O[C@@H]1[C@H](O)[C@@H]2C[C@@H]2[C@H]1n1cnc2c(NCc3cccc(I)c3)nc(Cl)nc21` [Compound 2c, reference compound], the “% efficacy, A3 (stimulation of [35S]GTPγS binding)” value in the test on A3AR was 1.0 ± 3.2%. The “agonist character at hA3AR in the adenylate cyclase (cAMP) assay” value (shortened to “agonist character at hA3AR”) at human A3AR [1] is “partial agonists”.
As for `O[C@@H]1[C@H](O)[C@@H]2C[C@@H]2[C@H]1n1cnc2c(NCc3cccc(Cl)c3)ncnc21` [Compound 22], the “agonist character at hA3AR” value on human A3AR [1] is listed as “partial”.
Take `O[C@@H]1[C@H](O)[C@@H]2C[C@@H]2[C@H]1n1cnc2c(NCc3cccc(I)c3)ncnc21` [Compound 23, (1′R,2′R,3′S,4′ S,5′ S)-4′-[6-(3-Iodobenzylamino)purine]-2′,3′-dihydroxybicyclo[3.1.0]hexane]: the Ki in test [4] worked out at 2330 ± 680 nM; in test [5], 11 ± 2.2 nM. Also, the “agonist character at hA3AR” value on human A3AR [1] is “nearly full agonism”.
For orientation: inhibition means the drop in the measured response relative to a control, in per cent. With `CCN1C(=CC=CC=CC2=[N+](CCCCCC(=O)NCCNC(=O)CCC#Cc3nc(NCc4cccc(Cl)c4)c4ncn(C5C(O)C(O)C6(C(=O)NC)CC56)c4n3)c3ccc(S(=O)(=O)O)cc3C2(C)C)C(C)(C)c2cc(S(=O)(=O)[O-])ccc21` (stereo not drawn) [Compound 18, (1′S,2′R,3′S,4′S,5′S)-4′-[6-(3-Chlorobenzylamino)-2-(N-cyaiune(β-aminoethylaminocarbonyl)-1-butynyl)-9-yl]-2′,3′-dihydroxybicyclo[3.1.0]hexane-1′-carboxylic Acid N-Methylamide], the Ki in test [4] was 4730 ± 1020 nM; on rA3AR, 9.62 nM and 9.6 nM. Moreover, the inhibition at 10 µM in test [6] (read-out: % inhibition of radioligand binding A1) is 36%. Moreover, the “agonist character at hA3AR” value at human A3AR [1] is “full agonist”.
`O[C@@H]1[C@H](O)[C@@H]2C[C@@H]2[C@H]1n1cnc2c(NCc3cccc(Br)c3)nc(Cl)nc21` [Compound 2b, (1R,2R,3S,4R,5S)-4-(6-(3-bromobenzylamino)-2-chloro-9H-purin-9-yl)bicyclo-[3.1.0]hexane-2,3-diol, reference compound]: on human A3AR [1], the “agonist character at hA3AR” value is “partial agonists”.
With `O[C@@H]1[C@H](O)[C@@H]2C[C@@H]2[C@H]1n1cnc2c(NC3CCCC3)nc(Cl)nc21` [Compound 25], in test [5] (25 versus 4), the “fold reduction of affinity at A3AR on loss of the 5′-N-methyluronamide group” value is reported as 32 fold. Moreover, the “fold reduction of affinity at A1AR on loss of the 5′-N-methyluronamide group” value in test [6] (25 versus 4) was 6 fold. Also, on human A3AR [1], the “agonist character at hA3AR” value is listed as “nearly full agonism; also recorded: full agonist”.

These data come from PMC3109436 (Journal of medicinal chemistry, 2009).
